Experimental data published in US5238936A, “Trisubstituted triazines” (Adir et Compagnie, priority 1991, dated 1993).

Legend:
line DC-3F/AD [1] = experiment: Cytotoxicity (Microculture Tetrazolium Assay): reversal of resistance to actinomycin D, line DC-3F/AD; format: cell-based, Chinese hamster; details: 4 days
Excerpt: The pharmacological study of the compounds of the present invention consisted first of all in an evaluation in vitro carried out on resistant cells. The parameter measured is the cytotoxicity of the antitumour drug, quantified in the absence and in the presence of the reversing compound.
The cells are distributed on microplates and exposed to the cytotoxic compounds (actinomycin D for line DC-3F/AD and adriamycin for line KB-Al) at 9 concentrations (2 by 2 series dilutions). The compounds tested for their capacity to reverse MDR are added at the same time as the cytotoxic agent.
The cells are then incubated for 4 days. […] The results are expressed as a reversion factor (RF): PG,29 [formula]

line DC-3F/AD [2] = experiment: Flow cytometry: intracellular accumulation of adriamycin by cells of the line DC-3F/AD; format: cell-based, Chinese hamster; details: ADR 50 μM, 5 hours
Excerpt: Also measured was the effect of the compounds on the intracellular concentration of the cytotoxic agent. In effect, the known compounds for reversing MDR act by increasing the intracellular concentration of cytotoxic agent. This effect is the consequence of inhibiting the action of gP 170 which is responsible for the efflux of the drug.
By measuring that fluorescence, it is thus possible to obtain a relative measurement of the intracellular concentration of ADR.
The cells 500×10^3 per ml were exposed simultaneously to ADR at a fixed concentration (50 μM) and to the tested compounds at various concentrations. After 5 hours' incubation, the intracellular accumulation of ADR was evaluated by FCM. […] The analysis of each of the samples was carried out on a total of 10,000 cells at a rate of 1,000 cells per second.
The results were presented in the form of linear histograms of the intracellular ADR fluorescence.
Expression of the results: for each of the histograms the mean fluorescence per channel (MEAN) was determined by the information system of the apparatus. For all experiments:
a negative control (cells without ADR) fixed the autofluorescence threshold.
a positive control (cells with ADR) determined the MEAN value=MN1.
the "test" tubes (cells with ADR and with compound) were used to determine, for each of the compounds and at each of the concentrations, the MEAN values=MN2.
The results are expressed in the form of variations from the mean fluorescence obtained for each of the "test" tubes (MN2) in relation to the mean fluorescence obtained with the positive control (MNl): VAR-MEAN=MN2-MN1. The parameter expressed is thus the increase in ADR fluorescence in the presence of the tested compounds.

Compound	Reversion factors (cytotoxicity) with the line DC-3F/AD (line DC-3F/AD [1]; 0.5 μM compound)	Reversion factors (cytotoxicity) with the line DC-3F/AD (line DC-3F/AD [1]; 1 μM compound)	VAR-MEAN (increase in ADR fluorescence), line DC-3F/AD (line DC-3F/AD [2]; 1.0 μM compound)	VAR-MEAN (increase in ADR fluorescence), line DC-3F/AD (line DC-3F/AD [2]; 5.0 μM compound)	VAR-MEAN (increase in ADR fluorescence), line DC-3F/AD (line DC-3F/AD [2]; 10 μM compound)	VAR-MEAN (increase in ADR fluorescence), line DC-3F/AD (line DC-3F/AD [2]; […] compound)	Reversion factors (cytotoxicity) with the line DC-3F/AD (line DC-3F/AD [1]; 5 μM compound)
C=CCNc1nc(NCC=C)nc(NCC(O)CN2CCN(C3c4ccccc4CCc4ccccc43)CC2)n1 (centres unmarked) [Example 6, 2,4-diallylamino-6-{3-[4-(10,11-dihydro-5H-dibenzo[a,d]cyclohepten-5-yl)piperazin-1-yl]-2-hydroxypropylamino}-1,3,5-triazine]	0.9	1.1	11.0	24.3	27.6	14.4	
C=CCNc1nc(NCC=C)nc(N2CCN(C3c4ccccc4CCc4ccccc43)CC2)n1 [Example 1, 2,4-Diallylamino-6-{4-(10,11-dihydro-5H-dibenzo[a,d]cyclohepten-5-yl)piperazin-1-yl}-1,3,5-triazine]		27	8.4	16.0	19.3	4.9	309
C=CCNc1nc(NCC=C)nc(NCCN2CCC(NCC3c4ccccc4CCc4ccccc43)CC2)n1 [Example 15, 2,4-diallylamino-6-(2-[4-(10,11-dihydro-5H-dibenzo-[a,d]cyclohepten-5-ylmethylamino)piperidin-1-yl]ethylamino}-1,3,5-triazine]	0.8	1	10.1	13.7	12.4	12.4	120
CNc1nc(NC)nc(N2CCC(NCC3c4ccccc4CCc4ccccc43)CC2)n1 [Example 14, 2,4-dimethylamino-6-{4-[(10,11-dihydro-5H-dibenzo[a,d]cyclohepten-5-yl)methylamino]piperidin-1-yl}-1,3,5-triazine]	1.3	7.8	12.3	29.4	30.6	14.5	187
C=CCNc1nc(NCC=C)nc(NCC(O)CN2CCC(NCC3c4ccccc4CCc4ccccc43)CC2)n1 (centres unmarked) [Example 17, 2,4-diallylamino-6-{3-[4-(10,11-dihydro-5H-dibenzo[a,d]cyclohepten-5-ylmethylamino)piperidin-1-yl]-2-hydroxypropylamino}-1,3,5-triazine]	0.8	0.8	9.4	10.5	12.6	11.0	1.1
C=CCNc1nc(NCC=C)nc(NCC2CCN(C3c4ccccc4CCc4ccccc43)CC2)n1 [Example 7, 2,4-diallylamino-6-{[1-(10,11-dihydro-5H-dibenzo[a,d]cyclohepten-5-yl)piperidin-4-yl]methylamino}-1,3,5-triazine]	1.2	1.1	3.4	10.1	17.4	3.9	9.7
C=CCNc1nc(NCC=C)nc(N2CCN(NCC3c4ccccc4CCc4ccccc43)CC2)n1 [Example 24, 2,4-diallylamino-6-{4-[(10,11-dihydro-5H-dibenzo[a,d]cyclohepten-5-yl)methylamino]piperazin-1-yl}-1,3,5-triazine]	2.5	14	12.8	21.1	28.2	16.9	329
